In the supplement of paper PMC10307832:

How the values were obtained:
Experiment in all cases: relative viability (nuclei count vs DMSO), 5 days (fraction); higher = more cells survive
[1] = test system: NCI-H2170
In short: (§1)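 Cells from lung cancer lines were seeded into 1536-well plates and, one day later, dosed by pin tool. Treatments were either a single drug or a fixed dose of an anchor drug with five library-drug doses (not always all listed) in √10 steps. After 5 days, nuclei were stained in a one-step fixation (final 0.05% Triton X-100, 1% formaldehyde, 1 ug/ml Hoechst) and counted on 4× images, and relative viability is the treated-to-vehicle nuclei ratio, as the median of duplicate plates.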

[2] = test system: A-427
In short: as §1

[3] = test system: EKVX
In short: as §1

[4] = test system: PC-3 [JPC-3]
In short: as §1

[5] = test system: ChaGo-K-1
In short: as §1

[6] = test system: NCI-H441
In short: as §1

[7] = test system: HCC-366
In short: as §1

[8] = test system: EMC-BAC-2
In short: as §1

[9] = test system: LK-2
In short: as §1

[10] = test system: NCI-H1755
In short: as §1

[11] = test system: COR-L 105
In short: as §1

[12] = test system: SW 900
In short: as §1

[13] = test system: SK-MES-1
In short: as §1

[14] = test system: NCI-H1975
In short: as §1

[15] = test system: NCI-H520
In short: as §1

[16] = test system: NCI-H1734
In short: as §1

[17] = test system: NCI-H1666
In short: as §1

[18] = test system: LOU-NH91
In short: as §1

[19] = test system: NCI-H23
In short: as §1

[20] = test system: H3255
In short: as §1

## Nc1ccn([C@@H]2O[C@H](CO)[C@@H](O)[C@@H]2O)c(=O)n1 [Cytarabine] + CC(=O)c1c(C)c2cnc(Nc3ccc(N4CCNCC4)cn3)nc2n(C2CCCC2)c1=O [Palbociclib] (partner 0.5 µM)
[1]; first compound 0.005 µM
  relative viability: 0.369
[1]; first compound 0.01581 µM
  relative viability: 0.266
[1]; first compound 0.05 µM
  relative viability: 0.26
[1]; first compound 0.1581 µM
  relative viability: 0.177
[1]; first compound 0.5 µM
  relative viability: 0.186
[2]; first compound 0.005 µM
  relative viability: 0.437
[2]; first compound 0.01581 µM
  relative viability: 0.474
[2]; first compound 0.05 µM
  relative viability: 0.363
[2]; first compound 0.1581 µM
  relative viability: 0.281
[2]; first compound 0.5 µM
  relative viability: 0.273
[3]; first compound 0.005 µM
  relative viability: 0.366
[3]; first compound 0.01581 µM
  relative viability: 0.403
[3]; first compound 0.05 µM
  relative viability: 0.296
[3]; first compound 0.5 µM
  relative viability: 0.207
[4]; first compound 0.005 µM
  relative viability: 0.546
[4]; first compound 0.01581 µM
  relative viability: 0.479
[4]; first compound 0.05 µM
  relative viability: 0.489
[4]; first compound 0.1581 µM
  relative viability: 0.459
[4]; first compound 0.5 µM
  relative viability: 0.463
[5]; first compound 0.005 µM
  relative viability: 0.71
[5]; first compound 0.01581 µM
  relative viability: 0.598
[5]; first compound 0.05 µM
  relative viability: 0.461
[5]; first compound 0.1581 µM
  relative viability: 0.276
[5]; first compound 0.5 µM
  relative viability: 0.229
[6]; first compound 0.005 µM
  relative viability: 0.198
[6]; first compound 0.01581 µM
  relative viability: 0.197
[6]; first compound 0.05 µM
  relative viability: 0.168
[6]; first compound 0.1581 µM
  relative viability: 0.139
[6]; first compound 0.5 µM
  relative viability: 0.17
[7]; first compound 0.005 µM
  relative viability: 0.302
[7]; first compound 0.01581 µM
  relative viability: 0.287
[7]; first compound 0.05 µM
  relative viability: 0.245
[7]; first compound 0.1581 µM
  relative viability: 0.0953
[7]; first compound 0.5 µM
  relative viability: 0.0777
[8]; first compound 0.005 µM
  relative viability: 0.51
[8]; first compound 0.01581 µM
  relative viability: 0.501
[8]; first compound 0.05 µM
  relative viability: 0.463
[8]; first compound 0.1581 µM
  relative viability: 0.353
[8]; first compound 0.5 µM
  relative viability: 0.303
[9]; first compound 0.005 µM
  relative viability: 0.634
[9]; first compound 0.01581 µM
  relative viability: 0.267
[9]; first compound 0.05 µM
  relative viability: 0.233
[9]; first compound 0.1581 µM
  relative viability: 0.14
[9]; first compound 0.5 µM
  relative viability: 0.107
[10]; first compound 0.005 µM
  relative viability: 0.428
[10]; first compound 0.01581 µM
  relative viability: 0.422
[10]; first compound 0.05 µM
  relative viability: 0.434
[10]; first compound 0.1581 µM
  relative viability: 0.377
[10]; first compound 0.5 µM
  relative viability: 0.414
[11]; first compound 0.005 µM
  relative viability: 0.37
[11]; first compound 0.01581 µM
  relative viability: 0.37
[11]; first compound 0.05 µM
  relative viability: 0.27
[11]; first compound 0.1581 µM
  relative viability: 0.351
[11]; first compound 0.5 µM
  relative viability: 0.324
[12]; first compound 0.005 µM
  relative viability: 0.536
[12]; first compound 0.01581 µM
  relative viability: 0.515
[12]; first compound 0.05 µM
  relative viability: 0.451
[12]; first compound 0.1581 µM
  relative viability: 0.362
[12]; first compound 0.5 µM
  relative viability: 0.292
[13]; first compound 0.005 µM
  relative viability: 0.297
[13]; first compound 0.01581 µM
  relative viability: 0.265
[13]; first compound 0.05 µM
  relative viability: 0.253
[13]; first compound 0.1581 µM
  relative viability: 0.246
[13]; first compound 0.5 µM
  relative viability: 0.223
[14]; first compound 0.005 µM
  relative viability: 0.453
[14]; first compound 0.01581 µM
  relative viability: 0.574
[14]; first compound 0.05 µM
  relative viability: 0.46
[14]; first compound 0.1581 µM
  relative viability: 0.283
[14]; first compound 0.5 µM
  relative viability: 0.212
[15]; first compound 0.005 µM
  relative viability: 0.234
[15]; first compound 0.01581 µM
  relative viability: 0.223
[15]; first compound 0.05 µM
  relative viability: 0.199
[15]; first compound 0.1581 µM
  relative viability: 0.177
[15]; first compound 0.5 µM
  relative viability: 0.201
[16]; first compound 0.005 µM
  relative viability: 0.305
[16]; first compound 0.01581 µM
  relative viability: 0.214
[16]; first compound 0.05 µM
  relative viability: 0.237
[16]; first compound 0.1581 µM
  relative viability: 0.153
[16]; first compound 0.5 µM
  relative viability: 0.155
[17]; first compound 0.005 µM
  relative viability: 0.611
[17]; first compound 0.01581 µM
  relative viability: 0.573
[17]; first compound 0.05 µM
  relative viability: 0.627
[17]; first compound 0.1581 µM
  relative viability: 0.511
[17]; first compound 0.5 µM
  relative viability: 0.575
[18]; first compound 0.005 µM
  relative viability: 0.478
[18]; first compound 0.01581 µM
  relative viability: 0.54
[18]; first compound 0.05 µM
  relative viability: 0.562
[18]; first compound 0.1581 µM
  relative viability: 0.432
[18]; first compound 0.5 µM
  relative viability: 0.412
[19]; first compound 0.005 µM
  relative viability: 0.617
[19]; first compound 0.01581 µM
  relative viability: 0.367
[19]; first compound 0.05 µM
  relative viability: 0.299
[19]; first compound 0.1581 µM
  relative viability: 0.193
[19]; first compound 0.5 µM
  relative viability: 0.169
[20]; first compound 0.005 µM
  relative viability: 0.33
[20]; first compound 0.01581 µM
  relative viability: 0.32
[20]; first compound 0.05 µM
  relative viability: 0.281
[20]; first compound 0.1581 µM
  relative viability: 0.265
[20]; first compound 0.5 µM
  relative viability: 0.261
